Results from patent US8124793B2, “Derivatives of ethylene methanedisulfonate as cancer chemotherapeutic agents” (priority 2007, dated 2012).

Experiments:
Format in all cases: cell-based
[1] = system: CCRF-CEM; assay: NCI screen, growth of human tumor cells: Leukemia CCRF-CEM; settings: CCRF-CEM
Summary of the method: (§1)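 Growth of human tumor cells, expressed as percent, was determined in the NCI screen. Test data list the cancer type and the molar concentration applied.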

[2] = system: MOLT-4; assay: NCI screen, growth of human tumor cells: Leukemia MOLT-4; settings: MOLT-4 (Leukemia), 10^−4 molar
Summary of the method: as §1

[3] = system: RPMI-8226; assay: NCI screen, growth of human tumor cells: Leukemia RPMI-8226; settings: RPMI-8226 (Leukemia), 10^−4 molar
Summary of the method: as §1

[4] = system: SR; assay: NCI screen, growth of human tumor cells: Leukemia SR; settings: SR
Summary of the method: as §1

[5] = system: AS49/ATCC; assay: NCI screen, growth of human tumor cells: Non-Small Cell Lung AS49/ATCC; settings: A549/ATCC, 10^−4 molar
Protocol: (§2) In the NCI screening process, each compound was tested and described by a minimum of 60 data points. The test data include, but are not limited to the type of cancer, the molar concentration used in the screen, and the percent growth of the cancer. In some cases, NMR and elemental analysis were used for structural assignment.

[6] = system: EKVX; assay: NCI screen, growth of human tumor cells: Non-Small Cell Lung EKVX; settings: EKVX, 10^−4 molar
Summary of the method: as §1

[7] = system: HOP-62; assay: NCI screen, growth of human tumor cells: Non-Small Cell Lung HOP-62; settings: HOP-62, 10^−4 molar
Summary of the method: as §1

[8] = system: HOP-92; assay: NCI screen, growth of human tumor cells: Non-Small Cell Lung HOP-92; settings: HOP-92 (Non-Small Cell Lung), 10^−4 molar
Summary of the method: as §1

[9] = system: NCI-H522; assay: NCI screen, growth of human tumor cells: Non-Small Cell Lung NCI-H522
Summary of the method: as §1

[10] = system: NCI-H460; assay: NCI screen, growth of human tumor cells: Non-Small Cell Lung NCI-H460; settings: NCI-H460 (Non-Small Cell Lung), 10^−4 molar
Summary of the method: as §1

[11] = system: NCI-H322M; assay: NCI screen, growth of human tumor cells: Non-Small Cell Lung NCI-H322M; settings: 10^−4 molar
Protocol: as §2

[12] = system: NCI-H23; assay: NCI screen, growth of human tumor cells: Non-Small Cell Lung NCI-H23; settings: NCI-H23, 10^−4 molar
Summary of the method: as §1

[13] = system: HCC-2998; assay: NCI screen, growth of human tumor cells: HCC-2998 (listed under Non-Small Cell Lung); settings: HCC-2998, 10^−4 molar
Protocol: as §2

[14] = system: COLO205; assay: NCI screen, growth of human tumor cells: Colon Cancer COLO205
Summary of the method: as §1

[15] = system: HCT-116; assay: NCI screen, growth of human tumor cells: Colon Cancer HCT-116; settings: HCT-116, 10^−4 molar
Summary of the method: as §1

[16] = system: HCT-15; assay: NCI screen, growth of human tumor cells: Colon Cancer HCT-15; settings: HCT-15 (Colon Cancer), 10^−4 molar
Summary of the method: as §1

[17] = system: HT29; assay: NCI screen, growth of human tumor cells: Colon Cancer HT29; settings: HT-29, 10^−4 molar
Protocol: as §2

[18] = system: KM12; assay: NCI screen, growth of human tumor cells: Colon Cancer KM12; settings: KM12, 10^−4 molar
Summary of the method: as §1

[19] = system: SF-268; assay: NCI screen, growth of human tumor cells: CNS Cancer SF-268
Summary of the method: as §1

[20] = system: SF-295; assay: NCI screen, growth of human tumor cells: CNS Cancer SF-295
Summary of the method: as §1

[21] = system: SNB-19; assay: NCI screen, growth of human tumor cells: CNS Cancer SNB-19; settings: SNB-19, 10^−4 molar
Protocol: as §2

[22] = system: SNB-75; assay: NCI screen, growth of human tumor cells: CNS Cancer SNB-75
Summary of the method: as §1

[23] = system: U-251; assay: NCI screen, growth of human tumor cells: CNS Cancer U-251; settings: U251, 10^−4 molar
Summary of the method: as §1

[24] = system: M14; assay: NCI screen, growth of human tumor cells: Melanoma M14; settings: M14, 10^−4 molar
Summary of the method: as §1

[25] = system: MALME-3M; assay: NCI screen, growth of human tumor cells: Melanoma MALME-3M; settings: MALME-3M
Summary of the method: as §1

[26] = system: SK-MEL-2; assay: NCI screen, growth of human tumor cells: Melanoma SK-MEL-2; settings: SK-MEL-2, 10^−4 molar
Summary of the method: as §1

[27] = system: SK-MEL-28; assay: NCI screen, growth of human tumor cells: Melanoma SK-MEL-28; settings: SK-MEL-28 (Melanoma), 10^−4 molar
Summary of the method: as §1

[28] = system: SK-MEL-5; assay: NCI screen, growth of human tumor cells: Melanoma SK-MEL-5; settings: SK-MEL-5, 10^−4 molar
Summary of the method: as §1

[29] = system: UACC-257; assay: NCI screen, growth of human tumor cells: Melanoma UACC-257; settings: UACC-257 (Melanoma), 10^−4 molar
Summary of the method: as §1

[30] = system: UACC-62; assay: NCI screen, growth of human tumor cells: Melanoma UACC-62; settings: UACC-62, 10^−4 molar
Summary of the method: as §1

[31] = system: IGROVI; assay: NCI screen, growth of human tumor cells: Ovarian Cancer IGROVI; settings: IGROVI
Summary of the method: as §1

[32] = system: OVCAR-3; assay: NCI screen, growth of human tumor cells: Ovarian Cancer OVCAR-3; settings: OVCAR-3, 10^−4 molar
Summary of the method: as §1

[33] = system: OVCAR-4; assay: NCI screen, growth of human tumor cells: Ovarian Cancer OVCAR-4; settings: OVCAR-4 (Ovarian Cancer), 10^−4 molar
Summary of the method: as §1

[34] = system: OVCAR-5; assay: NCI screen, growth of human tumor cells: Ovarian Cancer OVCAR-5; settings: OVCAR-5, 10^−4 molar
Summary of the method: as §1

[35] = system: TK-10; assay: NCI screen, growth of human tumor cells: Renal Cancer TK-10; settings: TK-10 (Renal Cancer), 10^−4 molar
Protocol: as §2

[36] = system: SN12C; assay: NCI screen, growth of human tumor cells: Renal Cancer SN12C; settings: SN12C (Renal Cancer), 10^−4 molar
Summary of the method: as §1

[37] = system: CAKI-1; assay: NCI screen, growth of human tumor cells: Renal Cancer CAKI-1; settings: CAKI-1, 10^−4 molar
Summary of the method: as §1

[38] = system: UO-31; assay: NCI screen, growth of human tumor cells: Renal Cancer UO-31; settings: UO-31 (Renal Cancer), 10^−4 molar
Summary of the method: as §1

[39] = system: PC-3; assay: NCI screen, growth of human tumor cells: Prostate Cancer PC-3; settings: PC-3, 10^−4 molar
Protocol: as §2

[40] = system: DU-145; assay: NCI screen, growth of human tumor cells: Prostate Cancer DU-145; settings: DV-145, 10^−4 molar
Summary of the method: as §1

[41] = system: MCF7/ADR-RES; assay: NCI screen, growth of human tumor cells: Breast Cancer MCF7/ADR-RES; settings: MCF7/ADR-RES, 10^−4 molar
Summary of the method: as §1

[42] = system: BT-549; assay: NCI screen, growth of human tumor cells: Breast Cancer BT-549; settings: BT-549 (Breast Cancer), 10^−4 molar
Summary of the method: as §1

[43] = system: HS 578T; assay: NCI screen, growth of human tumor cells: Breast Cancer HS 578T; settings: H5-578T
Summary of the method: as §1

[44] = system: MDA-MB-231/ATCC; assay: NCI screen, growth of human tumor cells: Breast Cancer MDA-MB-231/ATCC; settings: MDA-MB-231/ATCC (Breast Cancer), 10^−4 molar
Protocol: as §2

[45] = system: human cancer cells; assay: NCI screen summary over the cancers tested (negative growth of human cancer cells); settings: 10^−4 M conc.
Protocol: as §2
The derivatives in the tables are grouped using the same category as in the tables 1-6.

Substance: propane-1-[hydroxyhydrogensulfate]-3-(2-methylnaphthyl)-3,3-(ethylenedisulfonate) [NSC 693879]
- % Growth ([1]; 10^−4 molar): −33%
- % Growth ([1]; 10^−5 molar): 52%
- percent of growth of human tumor cells [2]: −16%
- percent of growth of human tumor cells [3]: −28%
- % Growth ([4]; 10^−4 molar): −19%
- % Growth ([4]; 10^−5 molar): 13%
- % Growth [5]: −62%
- % Growth [6]: −90%
- % Growth [7]: −65%
- percent of growth of human tumor cells [8]: −35%
- % Growth ([9]; NCI-H522, 10^−4 molar): −100%
- % Growth ([9]; NCI-H522, 10^−5 molar): 35%
- % Growth ([9]; NCI-H522, 10^−6 molar): 63%
- percent of growth of human tumor cells [10]: −58%
- percent of growth of human tumor cells ([11]; NCI-H322M (Non-Small Cell Lung)): −71%
- % Growth ([11]; NCI-H322M): −71%
- % Growth [12]: −65%
- % Growth [13]: −78%
- % Growth ([14]; COLO205, 10^−4 molar): −73%
- % Growth ([14]; COLO205, 10^−5 molar): 57%
- % Growth [15]: −79%
- percent of growth of human tumor cells [16]: −39%
- % Growth [17]: −86%
- % Growth [18]: −92%
- % Growth ([19]; SF-268, 10^−4 molar): −56%
- % Growth ([19]; SF-268, 10^−5 molar): 59%
- % Growth ([20]; SF-295, 10^−4 molar): −82%
- % Growth ([20]; SF-295, 10^−5 molar): 58%
- % Growth [21]: −72%
- % Growth ([22]; SNB-75, 10^−4 molar): −62%
- % Growth ([22]; SNB-75, 10^−5 molar): 55%
- % Growth [23]: −100%
- % Growth [24]: −100%
- % Growth ([25]; 10^−4 molar): −100%
- % Growth ([25]; 10^−5 molar): 44%
- % Growth ([25]; 10^−6 molar): 62%
- % Growth [26]: −99%
- percent of growth of human tumor cells [27]: −5%
- % Growth [28]: −100%
- percent of growth of human tumor cells [29]: −32%
- % Growth [30]: −66%
- % Growth ([31]; 10^−4 molar): −89%
- % Growth ([31]; 10^−5 molar): 50%
- % Growth ([31]; 10^−6 molar): 60%
- % Growth ([31]; 10^−7 molar): 52%
- % Growth [32]: −100%
- percent of growth of human tumor cells [33]: −40%
- % Growth [34]: −100%
- percent of growth of human tumor cells [35]: −3%
- percent of growth of human tumor cells [36]: −57%
- % Growth [37]: −87%
- percent of growth of human tumor cells [38]: −48%
- % Growth [39]: −100%
- % Growth [40]: −100%
- % Growth [41]: −54%
- percent of growth of human tumor cells [42]: −34%
- % Growth ([43]; 10^−4 molar): −49%
- % Growth ([43]; 10^−5 molar): 55%
- percent of growth of human tumor cells [44]: −54%
- percentage of cancers that had −100% growth [45]: 20%
- Percentage of cancers showing negative growth cancers tested ([45]; cancers with negative growth / cancers tested): 100%
